Results: PMC2965028 (Biochemistry, 2010)

Key:
[1] = target: wt HIV-1 IN (Human immunodeficiency virus type 1 group M subtype B, UniProt P12497); conditions: read-out: IC50, inhibition with two blunt-ended DNA molecules in SC; cited from earlier work
[2] = target: HIV-1 synaptic complex (SC) (Human immunodeficiency virus type 1 group M subtype B, UniProt P12497); test: Trapping of SC and H-SC on native agarose gels; assay type: biochemical; conditions: wt IN 20 nM, U5 DNA 0.5 nM, 2 h at 37°C, native agarose gel
[3] = test system: HIV-1; conditions: in 50% normal human serum; cited from earlier work
[4] = test system: wt IN-DNA complex; conditions: cited from earlier work
[5] = test system: N155H IN-DNA complex; conditions: cited from earlier work
[6] = target: Q148H IN (Human immunodeficiency virus type 1 group M subtype B, UniProt P12497, Q1295H); assay type: biochemical, HIV-1; conditions: IC50 Q148H vs IC50 wt IN
[7] = target: N155H IN (Human immunodeficiency virus type 1 group M subtype B, UniProt P12497, N1302H); assay type: biochemical, HIV-1; conditions: IC50 N155H vs IC50 wt IN

Row | Structure (SMILES) | Inhibitor concentration at which trapped SC and H-SC were first detected [2] [nM] | Dissociation half-life from wt IN-DNA complex [4] [h] | Dissociation half-life from N155H IN-DNA complex [5] [h] | other results
1 | O=C(NCc1ccc(F)cc1)c1nc(N2CCCCS2(=O)=O)c2cccnc2c1O [L-870,810] |  |  |  | IC50 [1]: ~32 nM
2 | CCN1C[C@H](C)n2c(c(O)c3c(=O)n(Cc4ccc(F)c(Cl)c4)nc(C(=O)NC)c32)C1=O [MK-2048] | ≥ 10 | ~32 | ~4 | Antiviral activity IC95 [3]: 41 nM; Fold change in IC50 for FS products, Q148H IN relative to wt IN (resistance) [6]: 2 fold
3 | Cc1nnc(C(=O)NC(C)(C)c2nc(C(=O)NCc3ccc(F)cc3)c(O)c(=O)n2C)o1 [RAL, raltegravir] |  | 7.3 | ~0.7 | 
4 | O=C(O)C(=O)/C=C(\O)c1ccc2c(c1)c(=O)c(/C(O)=C/C(=O)C(=O)O)cn2Cc1ccc(F)cc1 [RDS 1997] | ≥ 50 |  |  | 
5 | O=C(O)C(=O)C=C(O)c1cn(Cc2ccc(F)cc2)c2cc(N3CCCC3)ccc2c1=O [RDS 2197] | ≥ 250 |  |  | Fold change in IC50 for FS products, N155H IN relative to wt IN (resistance) [7]: 1.3 fold
